This is an account of results in patent EP0443568B1, “Fused thiophene derivatives, their production and use” (Takeda Chemical Industries, Ltd., priority 1990, dated 1991).

One assay concerns the target T1, A-II-receptor (Bos taurus, UniProt P25104).
T1 construct: An A-II-receptor was prepared from the membrane fraction of bovine adrenal cortex; from tissue; host or cells: bovine adrenal cortex membrane fraction
T1 sequence (P25104 1-359): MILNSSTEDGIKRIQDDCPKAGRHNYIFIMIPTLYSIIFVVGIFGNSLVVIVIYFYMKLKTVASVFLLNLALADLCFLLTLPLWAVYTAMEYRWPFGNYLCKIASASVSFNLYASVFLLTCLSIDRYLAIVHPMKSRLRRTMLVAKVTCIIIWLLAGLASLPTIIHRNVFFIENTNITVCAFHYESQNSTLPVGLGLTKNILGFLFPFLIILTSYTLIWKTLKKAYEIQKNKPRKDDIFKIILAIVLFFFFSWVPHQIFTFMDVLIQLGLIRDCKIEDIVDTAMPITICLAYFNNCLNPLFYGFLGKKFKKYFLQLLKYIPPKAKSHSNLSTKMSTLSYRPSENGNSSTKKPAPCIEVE
The assay is described as follows: Inhibition of binding of angiotensin-II to angiotensin receptor (radio receptor assay, 125I-A-II). As to conditions: membrane fraction of bovine adrenal cortex, room temperature, one hour, read-out: Radio Receptor Assay IC₅₀. As to the method: An experiment of inhibition on the binding of angiotensin-II (A-II) to A-II-receptor was conducted by modifying the method of Douglas et al. [Endocrinology, 102, 685-696 (1978)]. An A-II-receptor was prepared from the membrane fraction of bovine adrenal cortex.
The compound of the present invention (10⁻⁹M to 3 × 10⁻⁵M ) and ¹²⁵I-A-II (1.85 kBq/50 µ l) were added to the receptor membrane fraction, and the mixture was incubated at room temperature for one hour. The receptor-bound and free ¹²⁵I-A-II were separated through a filter (Whatman GF/B filter), and the radioactivity of ¹²⁵I-A-II bound to the receptor was measured.

In assay [1] the test system is A-II-induced pressor action. The assay can be described thus: Inhibitory effect on pressor action of A-II in rats after oral administration. The class given is in vivo, Jcl : SD rats. As to conditions: Rattus norvegicus, p.o., A-II 100 ng/kg intravenous, male SD rats, read-out: Pressor Response (30 mg/Kg, p.o.). As to the method:
Jcl : SD rats (9 week old, male) were used. On the day previous to the experiment, these animals were applied with cannulation into the femoral artery and vein under anesthesia with pentobarbital Na. The animals were fasted but allowed to access freely to drinking water until the experiment was started. Just on the day of conducting the experiment, the artery cannula was connected with a blood-pressure transducer, and the average blood pressure was recorded by means of polygraph. Before administration of the drug, the pressor action due to intravenous administration of A-II (100 ng/kg) as the control was measured. The drugs were orally administered, and then, at each point of the measurement, A-II was administered intravenously, and the pressor action was similarly measured. By comparing the pressor action before and after administration of the drug, the percent inhibition by the drug on A-II-induced pressor action was evaluated.

For the compound `CCc1cc2c(=O)c(C(=O)OCC(C)C)cn(Cc3ccc(-c4ccccc4-c4nn[nH]n4)cc3)c2s1` [compound 7], the IC50 at A-II-receptor came to 170 nM.
Still for that read-out and setting: for `CCc1cc2c(=O)c(C(=O)NCC(C)C)cn(Cc3ccc(-c4ccccc4-c4nn[nH]n4)cc3)c2s1` [compound 14] the value was 130 nM.
Same read-out and setting: for `CCOC(=O)c1cn(Cc2ccc(-c3ccccc3-c3nn[nH]n3)cc2)c2sccc2c1=O` [compound 4] the value was 200 nM.
For the compound `CCc1cc2c(=O)c(C(=O)O)cn(Cc3ccc(-c4ccccc4-c4nn[nH]n4)cc3)c2s1` [compound 10], the IC50 at A-II-receptor amounted to 40 nM. Moreover, the inhibition in vivo at 30 mg/kg in assay [1] lay within 50 to 70%.
For `CCc1cc2c(=O)c(C(=O)NCc3ccccc3F)cn(Cc3ccc(-c4ccccc4-c4nn[nH]n4)cc3)c2s1` [compound 26], at A-II-receptor, the IC50 stood at 210 nM. Moreover, the inhibition in vivo at 30 mg/kg in assay [1] was ≥ 70%.
As to `CCOC(=O)c1cn(Cc2ccc(-c3ccccc3-c3nn[nH]n3)cc2)c2sc(C#N)cc2c1=O` [compound 20], at A-II-receptor, the IC50 worked out at 670 nM.
On the same count and under the same terms, for `CCOC(=O)c1cn(Cc2ccc(-c3ccccc3C(=O)O)cc2)c2sc(CC)cc2c1=O` [compound 11] the value was 210 nM.
Take `CCc1cc2c(=O)c(C(=O)Nc3ccccc3)cn(Cc3ccc(-c4ccccc4-c4nn[nH]n4)cc3)c2s1` [compound 16]: the IC50 at A-II-receptor is 120 nM. Further, the inhibition in vivo at 30 mg/kg in assay [1] is ≥ 70%.
Take `CCc1cc2c(=O)c(C(N)=O)cn(Cc3ccc(-c4ccccc4-c4nn[nH]n4)cc3)c2s1` [compound 13]: on A-II-receptor, the IC50 was determined as 20 nM.
Same read-out and setting: for `CCOC(=O)c1cn(Cc2ccc(-c3ccccc3-c3nn[nH]n3)cc2)c2sc(C)cc2c1=O` [compound 5] the value was 50 nM.
For `CCc1cc2c(=O)c(C(=O)NCc3ccc(F)cc3)cn(Cc3ccc(-c4ccccc4-c4nn[nH]n4)cc3)c2s1` [compound 23], the IC50 on A-II-receptor is 170 nM. The inhibition in vivo at 30 mg/kg in assay [1] was ≥ 70%.
With `CCOC(=O)c1cn(Cc2ccc(-c3ccccc3-c3nn[nH]n3)cc2)c2sc(Br)cc2c1=O` [compound 3], the IC50 on A-II-receptor is 70 nM.
Take `CCc1cc2c(=O)c(C(=O)NCc3ccccc3OC)cn(Cc3ccc(-c4ccccc4-c4nn[nH]n4)cc3)c2s1` [compound 21]: on A-II-receptor, the IC50 worked out at 250 nM. In assay [1], the inhibition in vivo at 30 mg/kg was ≥ 70%.
Regarding `CCCc1cc2c(=O)c(C(=O)OCC)cn(Cc3ccc(-c4ccccc4-c4nn[nH]n4)cc3)c2s1` [compound 6], the IC50 at A-II-receptor came out at 90 nM.
The same measure, in the same setting: for `CCc1cc2c(=O)c(C(=O)OCCOC)cn(Cc3ccc(-c4ccccc4-c4nn[nH]n4)cc3)c2s1` [compound 8] the value was 10 nM.
Turning to `CCc1cc2c(=O)c(C(=O)NCc3ccc(C)cc3)cn(Cc3ccc(-c4ccccc4-c4nn[nH]n4)cc3)c2s1` [compound 28], the IC50 at A-II-receptor is 220 nM. In assay [1], the inhibition in vivo at 30 mg/kg lay within 50 to 70%.
For `CCc1cc2c(=O)c(C(=O)NCc3ccccc3)cn(Cc3ccc(-c4ccccc4-c4nn[nH]n4)cc3)c2s1` [compound 12] the same measures were 60 nM and ≥ 70%.
For `CCc1cc2c(=O)c(C(=O)NCc3ccccc3C)cn(Cc3ccc(-c4ccccc4-c4nn[nH]n4)cc3)c2s1` [compound 29], in that order: 120 nM and ≥ 70%.
For `CCc1cc2c(=O)c(C(=O)NC(C)c3ccccc3)cn(Cc3ccc(-c4ccccc4-c4nn[nH]n4)cc3)c2s1` (stereo not shown) [compound 25] the same measures were 780 nM and ≥ 70%.
Regarding `CCc1cc2c(=O)c(C(=O)NCCO)cn(Cc3ccc(-c4ccccc4-c4nn[nH]n4)cc3)c2s1` [compound 15], the IC50 at A-II-receptor is 50 nM.
As for `CCc1cc2c(=O)c(C(=O)NCc3ccccn3)cn(Cc3ccc(-c4ccccc4-c4nn[nH]n4)cc3)c2s1` [compound 30], the IC50 on A-II-receptor was determined as 20 nM. Moreover, in assay [1], the inhibition in vivo at 30 mg/kg is ≥ 70%.
As to `CCOC(=O)c1cn(Cc2ccc(-c3ccccc3-c3nn[nH]n3)cc2)c2sc(CC)cc2c1=O` [compound 2], at A-II-receptor, the IC50 worked out at 50 nM.
With `CCc1cc2c(=O)c(C(=O)NCc3cccc(F)c3)cn(Cc3ccc(-c4ccccc4-c4nn[nH]n4)cc3)c2s1` [compound 24], on A-II-receptor, the IC50 stood at 190 nM. Further, the inhibition in vivo at 30 mg/kg in assay [1] is ≥ 70%.
